Laboratory results published in patent US4568490A, “Aminopropylaminobleomycin derivatives and process for preparation thereof” (Zaidan Hojin Biseibutsu Kagaku Kenkyu Kai, priority 1981, dated 1986).

Assays:
[1] = system: Mycobacterium smegmatis ATCC 607; experiment: Antimicrobial activity, agar plate-cylinder method; format: cell-based; conditions: Cu-free form; bleomycin A2 (Cu-free form) standard assumed 1,000 mcg/mg
Protocol: (§1) The activity was assayed against the above test microorganisms by the method of agar plate-cylinder, assuming the potency of bleomycin A2 (Cu-free form), used as standard, to be 1,000 mcg/mg.

Bacillus subtilis = experiment: Antimicrobial activity, agar plate-cylinder method; format: cell-based; conditions: Cu-free form; bleomycin A2 (Cu-free form) standard assumed 1,000 mcg/mg
Protocol: (1) Antimicrobial activity against Mycobacterium smegmatis ATCC 697 and Bacillus subtilis.
as §1

Hela S3 cells = experiment: Growth inhibitory activity against Hela S3 cells; format: cell-based; conditions: Cu-free form; Hela S3, 3 days incubation with compound
Protocol: The percentage growth inhibition was calculated using the equation: […] wherein A is the ultimate number of cells on the third day from the addition of a test sample, B is the ultimate number of cells in the control (without the addition of test sample), and C is the number of cells on the day of addition of the test sample.

ICR strain mice = experiment: Pulmonary toxicity (pulmonary fibrosis) in mice, intraperitoneal injection; format: in vivo; conditions: 5 mg/kg i.p. once a day for 10 days; for Grade of pulmonary fibrosis, % / Incidence of pulmonary fibrosis, % / Incidence: number of mice suffering from pulmonary fibrosis / Grade: total score of pulmonary fibrosis/total number of test animal: autopsy after 5 weeks; for Incidence: number of mice suffering from pulmonary fibrosis: affected/total mice; for Grade: total score of pulmonary fibrosis/total number of test animal: score 0-6 points; for Grade of pulmonary fibrosis, Ratio / Incidence of pulmonary fibrosis, Ratio: reference of the ratio not stated
Summary of the method: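 Male ICR mice, 15 weeks old, 9 per group, received 5 mg/kg intraperitoneally once daily for 10 days. They were autopsied after 5 weeks' observation for pulmonary fibrosis incidence and grade: 1, alveolar exudate/septal fibrosis-like change; 2, fibrosis in several areas; 4, scattered fibrosis; 6, fibrosis over >2/3 of area.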

[2] = system: Lymphocytic leukemia P-388; experiment: In vivo antitumor activity, murine lymphocytic leukemia P-388; conditions: BDF1-SLC mice, i.p. transplant, once daily for 9 days, 30 days observation; T/C more than 130 effective
Protocol: The following data with respect to the testing of a group of the presently claimed substances in vivo according to a standard test method involving murine lymphocytic leukemia P-388 is presented to lend further assurance as to the utility of the compounds as inhibitors of mammalian tumors.
Lymphocytic leukemia P-388 cells (1×10^5 /0.2 ml) were transplanted intraperitoneally into male BDF1 -SLC mice (5 mice/group). Each of the compounds of this invention was diluted with physiological saline to various concentrations. Each dilution was administered at a dose of 0.1 ml/10 g of body weight once daily for 9 days, starting on the day after the day of the transplantation. The mice of the control group were administered physiological saline.
The average number of days that the group receiving the compound of this invention survived was calculated. The figure obtained was divided by the average number of survival days for the control group, and was multiplied by 100 (T/C (%)).
T/C value more than 130 was considered to be effective.

ICR mice = experiment: Pulmonary toxicity (pulmonary fibrosis) in mice, intratracheal instillation; format: in vivo; conditions: 16 μg/50 μl/mouse intratracheally, sacrificed 4 weeks after instillation
Protocol: Male 15 weeks old ICR mice were used. Sixteen μg/50 μl/mouse of each test sample was intratracheally instilled. The mice were sacrificed 4 weeks after instillation to examine the incidence and grade of pulmonary fibrosis. The evaluation was made by comparing the number of administered mice suffering from pulmonary fibrosis and the grade of the disease.
In Tables 4A and 4B, the grade was numerically rated as follows:
1 point: Accumulation of exudate in pulmonary alveoli and fibrosis-like change in alveolar septum.
2 points: Fibrosis in several areas.
4 points: Scattered fibrosis.
6 points: Fibrosis in more than two-thirds of the total area.

SMILES	Antimicrobial potency of Cu--free compound, against Mycobacterium smegmatis ATCC 607 [1]	Antimicrobial potency of Cu--free compound, against Bacillus subtilis (Bacillus subtilis)	50% growth inhibition concentration (ID50) of Cu--free compound against cultured Hela cell (Hela S3 cells)	Grade of pulmonary fibrosis, % (ICR strain mice)	Incidence of pulmonary fibrosis, % (ICR strain mice)	Incidence: number of mice suffering from pulmonary fibrosis (ICR strain mice)	Grade: total score of pulmonary fibrosis/total number of test animal (ICR strain mice)	Grade of pulmonary fibrosis, Ratio (ICR strain mice)	Incidence of pulmonary fibrosis, Ratio (ICR strain mice)	Max. T/C on Mouse Lymphocytic Leukemia P 388 [2]	Grade of pulmonary fibrosis, % (ICR mice)	Incidence of pulmonary fibrosis, % (ICR mice)	Incidence: number of mice with pulmonary fibrosis/number of mice (ICR mice)	Grade: total score of pulmonary fibrosis/total number of samples (ICR mice; score 0-6 points)
Cc1c(N)nc(C(CC(N)=O)NCC(N)C(N)=O)nc1C(=O)NC(C(=O)NC(C)C(O)C(C)C(=O)NC(C(=O)NCCc1nc(-c2nc(C(=O)NCCC[N+](C)(C)CCC[N+](C)(C)CCCNCC3CCCCCCC3)cs2)cs1)C(C)O)C(OC1OC(CO)C(O)C(O)C1OC1OC(CO)C(O)C(OC(N)=O)C1O)c1cnc[nH]1 (centres unmarked) [Compound No. 42, 3-{N,N--Dimethyl-N--[3'-(N,N--dimethyl-N--(3"-cyclooctylmethylaminopropyl)amino)propyl]amino}propylaminoBLM]	26000 mcg potency per mg	14600 mcg potency per mg	0.51 µg/mL	0%	0%	0/9	0/27	0.00	0.00	177%				
Cc1c(N)nc(C(CC(N)=O)NCC(N)C(N)=O)nc1C(=O)NC(C(=O)NC(C)C(O)C(C)C(=O)NC(C(=O)NCCc1nc(-c2nc(C(=O)NCCC[N+](C)(CCCN(Cc3ccccc3)Cc3ccccc3)Cc3ccccc3)cs2)cs1)C(C)O)C(OC1OC(CO)C(O)C(O)C1OC1OC(CO)C(O)C(OC(N)=O)C1O)c1cnc[nH]1 (centres unmarked) [compound 39, 3-{N--Methyl-N--benzyl-N--[3'-(dibenzylamino)propyl]amino}propylaminoBLM]	7746 mcg potency per mg	580 mcg potency per mg	2.30 µg/mL	0%	0%	0/9	0/27	0.00	0.00	163%	15%	22%	2/9	4/27
Cc1c(N)nc(C(CC(N)=O)NCC(N)C(N)=O)nc1C(=O)NC(C(=O)NC(C)C(O)C(C)C(=O)NC(C(=O)NCCc1nc(-c2nc(C(=O)NCCCN3CCN(CCCNCC4CCCCCCC4)CC3)cs2)cs1)C(C)O)C(OC1OC(CO)C(O)C(O)C1OC1OC(CO)C(O)C(OC(N)=O)C1O)c1cnc[nH]1 (stereo not drawn) [compound 45, 3-[4-(3-Cyclooctylmethylaminopropyl)piperazin-l-yl]propylaminoBLM]	43000 mcg potency per mg	15100 mcg potency per mg	0.81 µg/mL	0%	0%	0/9	0/27	0.00	0.00	163%				
CC[N+](CC)(CCCNCCc1ccc(Cl)cc1)CCCNC(=O)c1csc(-c2csc(CCNC(=O)C(NC(=O)C(C)C(O)C(C)NC(=O)C(NC(=O)c3nc(C(CC(N)=O)NCC(N)C(N)=O)nc(N)c3C)C(OC3OC(CO)C(O)C(O)C3OC3OC(CO)C(O)C(OC(N)=O)C3O)c3cnc[nH]3)C(C)O)n2)n1 (centres unmarked) [compound 46, 3-{N,N--Diethyl-N--[3'-(2"-p-chlorophenylethylamino)propyl]amino}propylaminoBLM]	17480 mcg potency per mg	13310 mcg potency per mg	0.52 µg/mL	0%	0%	0/9	0/27	0.00	0.00	150%				
CCCC[N+](CCCC)(CCCNC(=O)c1csc(-c2csc(CCNC(=O)C(NC(=O)C(C)C(O)C(C)NC(=O)C(NC(=O)c3nc(C(CC(N)=O)NCC(N)C(N)=O)nc(N)c3C)C(OC3OC(CO)C(O)C(O)C3OC3OC(CO)C(O)C(OC(N)=O)C3O)c3cnc[nH]3)C(C)O)n2)n1)CCCN(Cc1ccccc1)Cc1ccccc1 (centres unmarked) [compound 38, 3-{N,N--Dibutyl-N--[3'-(dibenzylamino)propyl]amino}propylaminoBLM]	17910 mcg potency per mg	530 mcg potency per mg	2.00 µg/mL	0%	0%	0/9	0/27	0.00	0.00	156%				
Cc1c(N)nc(C(CC(N)=O)NCC(N)C(N)=O)nc1C(=O)NC(C(=O)NC(C)C(O)C(C)C(=O)NC(C(=O)NCCc1nc(-c2nc(C(=O)NCCCN(C)CCCNCC3CCCCCCC3)cs2)cs1)C(C)O)C(OC1OC(CO)C(O)C(O)C1OC1OC(CO)C(O)C(OC(N)=O)C1O)c1cnc[nH]1.Cl.Cl.Cl (centres unmarked) [Compound No. 22]	22860 mcg potency per mg	12300 mcg potency per mg	0.45 µg/mL	0%	0%	0/9	0/27	0.000	0.00	174%				
Cc1c(N)nc(C(CC(N)=O)NCC(N)C(N)=O)nc1C(=O)NC(C(=O)NC(C)C(O)C(C)C(=O)NC(C(=O)NCCc1nc(-c2nc(C(=O)NCCC[N+](C)(C)CCC[N+](C)(C)CCCN(Cc3ccccc3)Cc3ccccc3)cs2)cs1)C(C)O)C(OC1OC(CO)C(O)C(O)C1OC1OC(CO)C(O)C(OC(N)=O)C1O)c1cnc[nH]1 (centres unmarked) [Compound No. 41, 3-{N,N--Dimethyl-N--[3'-(N,N--dimethyl-N--(3"-dibenzylaminopropyl)amino)propyl]amino}propylaminoBLM]	16000 mcg potency per mg	7100 mcg potency per mg	0.66 µg/mL	0%	0%	0/9	0/27	0.00	0.00	184%				
